Assay results from patent US10683382B2, “Copolymer comprising a lignin or lignin derivative and a poly(alkylene oxide) alkyl ether (meth)acrylate, and a hydrogel comprising the copolymer” (AGENCY FOR SCIENCE, TECHNOLOGY AND RESEARCH, priority 2015, dated 2020).

System: human dermal fibroblasts
Experiment: MTT assay, cell viability
Format: cell-based
Settings: 1, 5, 10 μM; up to 72 hours
Method: MTT assays were performed to assess the metabolic activity of human dermal fibroblasts. Human dermal fibroblasts were seeded in 96-well plates (Costar, USA) at a density of 1×10^4 cells/mL. After 24 hours of incubation, the medium was replaced by the Lig-PEG1, Lig-PEG2, Lig-PEG4, α-CD and P(PEGMA) (Mn=18 000 g/mol) aqueous solutions at concentrations of 10 μM, 5 μM and 1 μM, respectively. The cells were then incubated for 24 hours, 48 hours and 72 hours, respectively. After the designated time intervals, the wells were washed twice with 1×PBS buffer, and 100 μL of freshly prepared MTT (0.5 mg/mL) solution in culture medium was added to each well. The MTT medium solution was carefully removed after 3 hours incubation in the incubator. DMSO (100 μL) was then added into each well, and the plate was gently shaken for 10 minutes at room temperature to dissolve all precipitates formed. The absorbance of MTT at 570 nm was monitored by the microplate reader (Genios Tecan, Switzerland). Cell viability was expressed by the ratio of absorbance of the cells incubated with polymer solution to that of the cells incubated with culture medium only.

In the case of `OC[C@H]1O[C@@H]2O[C@H]3[C@H](O)[C@@H](O)[C@@H](O[C@H]4[C@H](O)[C@@H](O)[C@@H](O[C@H]5[C@H](O)[C@@H](O)[C@@H](O[C@H]6[C@H](O)[C@@H](O)[C@@H](O[C@H]7[C@H](O)[C@@H](O)[C@@H](O[C@H]1[C@H](O)[C@H]2O)O[C@@H]7CO)O[C@@H]6CO)O[C@@H]5CO)O[C@@H]4CO)O[C@@H]3CO` [α-CD, α-cyclodextrin], the cytotoxicity is reported as “no cytotoxicity”.
